Measured values reported in patent US12636297B2, “Boronic acid derivatives and therapeutic uses thereof” (priority 2019, dated 2026).
Where two headings read alike, the source gives them in different places.

Assays:
[1] = test system: carbapenem resistant Acinetobacter baumannii; test: MIC of antibiotics with Compound 1 against panel of 503 carbapenem resistant Acinetobacter baumannii clinical isolates; assay type: cell-based; details: carbapenem resistant Acinetobacter baumannii (N = 503); antibiotic alone
Method: In another experiment, various antibiotics, meropenem, cefepime, ceftolozane and cefiderocol, were tested in combination with Compound 1 at 4 μg/ml and 8 μg/ml against the panel of 503 clinical isolates of carbapenem resistant Acinetobacter baumannii. […] Cefiderocol was tested at standard conditions, in […] media.

[2] = test system: carbapenem resistant Enterobacteriaceae (CRE); test: MIC of antibiotics with Compound 1 against panel of 510 CRE clinical isolates; assay type: cell-based; details: antibiotic alone
Method: In this example, the antibiotics meropenem, cefepime, ceftolozane and cefiderocol, were tested in combination with Compound 1 at 4 μg/ml and 8 μg/ml against a panel of 510 clinical isolates representing various types of carbapenem resistant Enterobacteriaceae (CRE). Cefiderocol was tested at standard conditions, in […] media.

[3] = test system: Pseudomonas aeruginosa (PA); test: Broth microdilution MIC of β-lactams alone and with Compound 1 against Pseudomonas aeruginosa clinical isolates (representative and challenge panels); assay type: cell-based; details: for MIC Distribution, % of isolates: Compound 1 at 8 μg/mL; for MIC Distribution, % of isolates / Minimum Inhibitory Concentration Distribution, % of isolates: AVI and TAZ at 4 μg/mL; for Minimum Inhibitory Concentration Distribution, % of isolates: representative panel of PA (N = 500), without Compound 1; for % susceptible, [S] / MIC50 / MIC90: Compound 1, AVI, and TAZ at fixed 4 μg/mL; for % susceptible, [S]: breakpoints MER ≤8, TOL ≤4, CAZ ≤8 μg/mL; for MIC50 / MIC90: Pseudomonas aeruginosa
Method: (§1) In this example the in vitro activity of Compound 1 was evaluated in combination with several β-lactams including sulbactam, meropenem, and ceftolozane against clinical isolates of carbapenem-resistant (CR) Acinetobacter baumannii (AB) and Pseudomonas aeruginosa (PA).

[4] = test system: P. aeruginosa; test: Susceptibility testing of 262 P. aeruginosa strains with meropenem MIC >2 μg/mL; assay type: cell-based, Pseudomonas aeruginosa; details: Compound 1 at 8 μg/mL, breakpoints ≤8 μg/mL meropenem and cefepime, ≤4 μg/mL ceftolozane, ≤16 μg/mL piperacillin
Method: In addition, 509 Carbapenem-Resistant Enterobacteriaceae were tested with meropenem, cefepime, and ceftolozane alone and in combination with Compound 1 at 8 μg/mL. Furthermore, 262 strains of P. aeruginosa with a meropenem MIC>2 μg/mL were tested with meropenem, ceftolozane, cefepime and piperacillin alone and in combination with Compound 1 at 8 μg/mL.
262 strains of P. aeruginosa having a meropenem MIC greater than 2 μg/mL were tested with meropenem, ceftolozane, cefepime and piperacillin alone and Compound 1 at 8 μg/mL.

[5] = test system: carbapenem-resistant (CR) Acinetobacter baumannii (AB); test: Broth microdilution MIC of β-lactams alone and with Compound 1 against carbapenem-resistant Acinetobacter baumannii clinical isolates; assay type: cell-based; details: Compound 1 at fixed 4 μg/mL; for % susceptible, [S]: breakpoints MER ≤8 μg/mL, TOL ≤4 μg/mL
Method: as §1

[6] = non-carbapenemase producing CRE, N = 45

For `C[C@@H](O)[C@H]1C(=O)N2C(C(=O)O)=C(S[C@@H]3CN[C@H](C(=O)N(C)C)C3)[C@H](C)[C@H]12` [MER, meropenem], the MIC50 [1] was > 32 µg/mL, the MIC90 [1] was > 32 µg/mL and the MIC50 ([2]; CRE KPC, N = 168) was 32 µg/mL. For the same molecule, the MIC90 ([2]; CRE KPC, N = 168) was > 32 µg/mL, the MIC50 ([2]; CRE MBL, N = 145) was > 32 µg/mL and the MIC90 ([2]; CRE MBL, N = 145) was > 32 µg/mL. For the same molecule, the MIC50 ([2]; CRE OXA, N = 152) was 32 µg/mL, the MIC90 ([2]; CRE OXA, N = 152) was > 32 µg/mL and the MIC50 [2, 6] was 8 µg/mL. For the same molecule, the MIC90 [2, 6] was 16 µg/mL, the “MIC Distribution, % of isolates” value ([3]; MIC 0.125 μg/mL, PA CAZ-AVI R (CAZ-AVI >8 μg/mL)) was “.3%” and the “MIC Distribution, % of isolates” value ([3]; MIC 0.125 μg/mL, PA MER NS (MER >2 μg/mL), N = 612) was 0.0%. For the same molecule, the “MIC Distribution, % of isolates” value ([3]; MIC 0.125 μg/mL, PA TOL-TAZ NS (TOL-TAZ >4 μg/mL)) was 1.3%, the “Minimum Inhibitory Concentration Distribution, % of isolates” value ([3]; MIC 0.125 μg/mL) was 14.2% and the “MIC Distribution, % of isolates” value ([3]; MIC 0.25 μg/mL, PA CAZ-AVI R (CAZ-AVI >8 μg/mL)) was “.6%”. The “MIC Distribution, % of isolates” value ([3]; MIC 0.25 μg/mL, PA MER NS (MER >2 μg/mL), N = 612) was “.0%”, the “MIC Distribution, % of isolates” value ([3]; MIC 0.25 μg/mL, PA TOL-TAZ NS (TOL-TAZ >4 μg/mL)) was 2.7% and the “Minimum Inhibitory Concentration Distribution, % of isolates” value ([3]; MIC 0.25 μg/mL) was 33.0%. For the same molecule, the “MIC Distribution, % of isolates” value ([3]; MIC 0.5 μg/mL, PA CAZ-AVI R (CAZ-AVI >8 μg/mL)) was “.2%”, the “MIC Distribution, % of isolates” value ([3]; MIC 0.5 μg/mL, PA MER NS (MER >2 μg/mL), N = 612) was “.0%” and the “MIC Distribution, % of isolates” value ([3]; MIC 0.5 μg/mL, PA TOL-TAZ NS (TOL-TAZ >4 μg/mL)) was 3.7%. The “Minimum Inhibitory Concentration Distribution, % of isolates” value ([3]; MIC 0.5 μg/mL) was 51.0%, the “MIC Distribution, % of isolates” value ([3]; MIC 1 μg/mL, PA CAZ-AVI R (CAZ-AVI >8 μg/mL)) was “.5%” and the “MIC Distribution, % of isolates” value ([3]; MIC 1 μg/mL, PA MER NS (MER >2 μg/mL), N = 612) was “.0%”. For the same molecule, the “MIC Distribution, % of isolates” value ([3]; MIC 1 μg/mL, PA TOL-TAZ NS (TOL-TAZ >4 μg/mL)) was 6.0%, the “Minimum Inhibitory Concentration Distribution, % of isolates” value ([3]; MIC 1 μg/mL) was 66.2% and the “MIC Distribution, % of isolates” value ([3]; MIC 2 μg/mL, PA CAZ-AVI R (CAZ-AVI >8 μg/mL)) was “.8%”. For the same molecule, the “MIC Distribution, % of isolates” value ([3]; MIC 2 μg/mL, PA MER NS (MER >2 μg/mL), N = 612) was “.0%”, the “MIC Distribution, % of isolates” value ([3]; MIC 2 μg/mL, PA TOL-TAZ NS (TOL-TAZ >4 μg/mL)) was 8.7% and the “Minimum Inhibitory Concentration Distribution, % of isolates” value ([3]; MIC 2 μg/mL) was 73.2%. For the same molecule, the “MIC Distribution, % of isolates” value ([3]; MIC 4 μg/mL, PA CAZ-AVI R (CAZ-AVI >8 μg/mL)) was 1.0%, the “MIC Distribution, % of isolates” value ([3]; MIC 4 μg/mL, PA MER NS (MER >2 μg/mL), N = 612) was “.5%” and the “MIC Distribution, % of isolates” value ([3]; MIC 4 μg/mL, PA TOL-TAZ NS (TOL-TAZ >4 μg/mL)) was 13.7%. The “Minimum Inhibitory Concentration Distribution, % of isolates” value ([3]; MIC 4 μg/mL) was 79.8%, the “MIC Distribution, % of isolates” value ([3]; MIC 8 μg/mL, PA CAZ-AVI R (CAZ-AVI >8 μg/mL)) was 8.2% and the “MIC Distribution, % of isolates” value ([3]; MIC 8 μg/mL, PA MER NS (MER >2 μg/mL), N = 612) was 7.5%. The “MIC Distribution, % of isolates” value ([3]; MIC 8 μg/mL, PA TOL-TAZ NS (TOL-TAZ >4 μg/mL)) was 22.1%, the “Minimum Inhibitory Concentration Distribution, % of isolates” value ([3]; MIC 8 μg/mL) was 84.8% and the “MIC Distribution, % of isolates” value ([3]; MIC 16 μg/mL, PA CAZ-AVI R (CAZ-AVI >8 μg/mL)) was 8.9%. For the same molecule, the “MIC Distribution, % of isolates” value ([3]; MIC 16 μg/mL, PA MER NS (MER >2 μg/mL), N = 612) was 6.7%, the “MIC Distribution, % of isolates” value ([3]; MIC 16 μg/mL, PA TOL-TAZ NS (TOL-TAZ >4 μg/mL)) was 32.8% and the “Minimum Inhibitory Concentration Distribution, % of isolates” value ([3]; MIC 16 μg/mL) was 90.4%. For the same molecule, the “MIC Distribution, % of isolates” value ([3]; MIC 32 μg/mL, PA CAZ-AVI R (CAZ-AVI >8 μg/mL)) was 3.2%, the “MIC Distribution, % of isolates” value ([3]; MIC 32 μg/mL, PA MER NS (MER >2 μg/mL), N = 612) was 0.4% and the “MIC Distribution, % of isolates” value ([3]; MIC 32 μg/mL, PA TOL-TAZ NS (TOL-TAZ >4 μg/mL)) was 58.2%. The “Minimum Inhibitory Concentration Distribution, % of isolates” value ([3]; MIC 32 μg/mL) was 95.4%, the “MIC Distribution, % of isolates” value ([3]; MIC >32 μg/mL, PA CAZ-AVI R (CAZ-AVI >8 μg/mL)) was 100.0% and the “MIC Distribution, % of isolates” value ([3]; MIC >32 μg/mL, PA MER NS (MER >2 μg/mL), N = 612) was 100.0%. For the same molecule, the “MIC Distribution, % of isolates” value ([3]; MIC >32 μg/mL, PA TOL-TAZ NS (TOL-TAZ >4 μg/mL)) was 100.0%, the “Minimum Inhibitory Concentration Distribution, % of isolates” value ([3]; MIC >32 μg/mL) was 100.0% and the “Minimum Inhibitory Concentration Distribution, % of isolates” value ([3]; MIC ≤0.06 μg/mL) was 4.8%. For the same molecule, the “MIC Distribution, % of isolates” value ([3]; MIC ≥0.06 μg/mL, PA CAZ-AVI R (CAZ-AVI >8 μg/mL)) was “.3%”, the “MIC Distribution, % of isolates” value ([3]; MIC ≥0.06 μg/mL, PA MER NS (MER >2 μg/mL), N = 612) was 0.0% and the “MIC Distribution, % of isolates” value ([3]; MIC ≥0.06 μg/mL, PA TOL-TAZ NS (TOL-TAZ >4 μg/mL)) was 0.3%. The “% susceptible, [S]” value ([3]; PA (CAZ-AVI MIC >8) (37)) was “(18.9) %”, the “% susceptible, [S]” value ([3]; PA (Challenge, 652)) was “(31.9) %” and the “% susceptible, [S]” value ([3]; PA (MER MIC >2) (612)) was “(27.5) %”. For the same molecule, the “% susceptible, [S]” value ([3]; PA (Representative, 500)) was “(84.8) %”, the “% susceptible, [S]” value ([3]; PA (TOL-TAZ MIC >4) (39)) was “(21.1) %” and the MIC50 ([3]; PA (CAZ-AVI MIC >8) (37)) was 32 µg/mL. For the same molecule, the MIC90 ([3]; PA (CAZ-AVI MIC >8) (37)) was > 32 µg/mL, the MIC50 ([3]; PA (Challenge, 652)) was 16 µg/mL and the MIC90 ([3]; PA (Challenge, 652)) was > 32 µg/mL. For the same molecule, the MIC50 ([3]; PA (MER MIC >2) (612)) was 32 µg/mL, the MIC90 ([3]; PA (MER MIC >2) (612)) was > 32 µg/mL and the MIC50 ([3]; PA (Representative, 500)) was 0.5 µg/mL. For the same molecule, the MIC90 ([3]; PA (Representative, 500)) was 16 µg/mL, the MIC50 ([3]; PA (TOL-TAZ MIC >4) (39)) was 32 µg/mL and the MIC90 ([3]; PA (TOL-TAZ MIC >4) (39)) was > 32 µg/mL. For the same molecule, the “% of susceptible organisms at breakpoints” value (from here on “% of susceptible organisms”) ([4]; All strains (N = 262), meropenem MIC >2 μg/mL) was 42%, the “% of susceptible organisms” value ([4]; MBL (N = 56)) was 7% and the “% of susceptible organisms” value ([4]; No MBL (N = 206)) was 51%. The “% susceptible, [S]” value ([5]; AB CP (100), defined carbapenemases) was “(0.0) %”, the MIC50 ([5]; Acinetobacter baumannii, AB CP (100), defined carbapenemases, read-out: MIC50) was > 32 µg/mL and the MIC90 ([5]; Acinetobacter baumannii, AB CP (100), defined carbapenemases, read-out: MIC90) was > 32 µg/mL. The MIC50 ([5]; CRAB (300)) was >32/>32 μg/mL, the MIC90 ([5]; CRAB (300)) was >32/>32 μg/mL and the “% susceptible, [S]” value ([5]; CRAB (300)) was “(1.0) %”.
